Experimental data as given in publication PMC3048764 (Brain research, 2010).

Tests used:
uterine weights = experiment: Uterine weight; settings: 1 day of exposure
[1] = test system: HT-22 (murine hippocampal) cells; settings: cited from earlier work; for neuroprotection against toxicity, in words: compared with βE2 or parent compound, ref Perez et al., 2005b; for neuroprotection of non-phenolic estrogens, in words: all of the structure-activity studies
ERα = settings: competitive binding; ref Perez et al. (2005b); cited from earlier work
ERβ = settings: competitive binding; ref Perez et al. (2005b); cited from earlier work
[2] = test system: HT-22 (murine hippocampal) cells; assay type: cell-based; settings: insult not named
[3] = test system: HT-22 (murine hippocampal) cells; settings: cited from earlier work
[4] = test system: SK-N-SH neuroblastoma cells; settings: up to 200 nM; ref Green et al. (1997b); cited from earlier work
[5] = test system: HT-22 (murine hippocampal) cells; experiment: Neuroprotection against glutamate toxicity, calcein-AM viability assay; assay type: cell-based; settings: 10 μM concentration, paradigm of Behl's group (1997)
HT-22 cells = experiment: DCF assay of reactive oxygen species, glucose oxidase insult; assay type: cell-based; settings: HT-22 cells insulted with glucose oxidase
[6] = test system: lipid peroxidation in rat brain homogenates; settings: read-out: IC50 of lipid peroxidation seen by other groups; ref Hall et al., 1991; cited from earlier work

C[C@]12CC[C@@H]3c4ccc(O)cc4CC[C@H]3[C@@H]1CCC2=O [Compound E1, estrone]
increase of uterine weights (uterine weights): 71%

C[C@]12CC(O)[C@@H]3c4ccc(O)cc4CC[C@H]3[C@@H]1CCC2=O (stereo partly shown) [Compound E1240]
neuroprotection against toxicity, in words [1]: neuroprotection was completely abolished

CC12CCC3c4ccc(O)cc4CCC3C1CCC2O (stereo not shown) [PS2]
neuroprotection against toxicity, in words [1]: reduced neuroprotective potencies

C[C@]12CC=C3c4ccc(O)cc4CC[C@H]3[C@@H]1CC[C@@H]2O [ZYC1]
ERα binding, in words (ERα): did not drastically change the affinity
ERβ binding, in words (ERβ): did not drastically change the affinity

C[C@]12CC[C@@H]3c4ccc(O)cc4CC[C@H]3[C@@H]1CC1(CCCC1)C2=O [ZYC2]
neuroprotection against toxicity, in words [1]: did not enhance neuroprotection

CCC(C)c1c(O)ccc2c1CC[C@@H]1[C@@H]2CC[C@]2(C)C(=O)CC[C@@H]12 (stereo partly shown) [ZYC17]
ERα binding, in words (ERα): completely inhibited estrogen receptor binding
ERβ binding, in words (ERβ): completely inhibited estrogen receptor binding

COc1cc2c(cc1C13CC4CC(CC(C4)C1)C3)[C@H]1CC[C@]3(C)[C@@H](O)CC[C@H]3[C@@H]1CC2 [ZYC23, 3-O-methyl analog of (17beta)-2-(1-adamantyl)estradiol]
neuroprotection against toxicity, in words [1]: failed to protect cells against toxicity induced cell death

Cc1c(O)c(C23CC4CC(CC(C4)C2)C3)cc2c1CC[C@@H]1[C@@H]2CC[C@]2(C)C(=O)CC[C@@H]12 [ZYC26, 2-(1-adamantyl)-4-methylestrone]
fold decrease in EC50 for protection against neurotoxicity, first value ([2]; first of two values given 'respectively'): approximately 9 fold
fold decrease in EC50 for protection against neurotoxicity, second value ([2]; second of two values given 'respectively'): ~4 fold
ERα binding, in words (ERα): completely abolished the affinity
ERβ binding, in words (ERβ): completely abolished the affinity

C[C@]12CC[C@@H]3c4ccc(O)cc4CC[C@H]3[C@@H]1CC[C@@H]2OC(=O)c1ccccc1 [ZYC30]
neuroprotection against toxicity, in words [1]: decreased the potency of the parent compound

C#C[C@]1(O)CC[C@H]2[C@@H]3CCc4cc(OC)ccc4[C@H]3CC[C@@]21C [mestranol]
neuroprotection of non-phenolic estrogens, in words [1]: did not have protect effects

CC(=O)[C@H]1CC[C@H]2[C@@H]3CC[C@@H]4C[C@H](O)CC[C@]4(C)[C@H]3CC[C@]12C [pregnanolone]
protection against glutamate insult at high dose ([3]; 10 μM dose, ref Gursoy et al. (2001)): no protection
concentration of optimal protection against glutamate insult ([3]; ref Gursoy et al. (2001)): 500 nM

CC(=O)[C@H]1CC[C@H]2[C@@H]3CCC4=CC(=O)CC[C@]4(C)[C@H]3CC[C@]12C [progesterone]
neuroprotection against glutamate insult ([3]; 10 μM, ref Behl et al. (1997)): did not find 10 μM progestrone (P4) to be neuroprotective
protection against serum deprivation [4]: did not find progesterone to be protectiive

C#C[C@]1(O)CC[C@H]2[C@@H]3CCc4cc(OC5CCCC5)ccc4[C@H]3CC[C@@]21C [quinestrol]
neuroprotection of non-phenolic estrogens, in words [1]: did not have protect effects

C[C@]12CC[C@@H]3c4ccc(O)cc4CC[C@H]3[C@@H]1CC[C@H]2O [αE2]
ERα binding, in words (ERα): less affinity
ERβ binding, in words (ERβ): less affinity

C[C@]12CC[C@@H]3c4ccc(O)cc4CC[C@H]3[C@@H]1CC[C@@H]2O [βE2, 17β-estradiol]
protection against glutamate toxicity at fixed concentration [5]: protective
decrease of ROS (HT-22 cells): not able to significantly decrease ROS
IC50 [6]: 21 µM
